The record followed here is PubChem BioAssay (NCI).

Test systems include ACHN renal; RPMI-8226 leukemia; A549 NSCLC; KM12 colon; SK-MEL-2 melanoma; HCT-116 colon; SN12C renal; COLO 205 colon; DU-145 prostate; SF-295 CNS.
Holding throughout (experiment): inhibition of tumour cell growth, NCI panel, 48 h

Structures are written as SMILES. Several values for one entry are separate records, joined by “and”; a condition that tells them apart may be missing. Equal entries are not always repeated.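 The compound was tested at five concentrations on cells cultured in 96-well plates, with a 48-hour exposure period. GI50: concentration for 50% inhibition of growth. TGI denotes the concentration required for complete inhibition of growth.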

For `Cc1c(N)nc(C2CC(=O)N2CC(N)C(N)=O)nc1C(=O)NC(C(=O)NC(C)C(O)C(C)C(=O)NC(C(=O)NCCc1nc(-c2nc(C(=O)NCCNCC(C)O)cs2)cs1)C(C)O)C(OC1OC(CO)C(O)C(O)C1OC1OC(CO)C(O)C(OC(N)=O)C1O)c1cnc[nH]1` (centres undefined), the GI50 in the assay with ACHN renal is 0.135 µM; in the assay with RPMI-8226 leukemia, more than 50 µM; in the assay with A549 NSCLC it was 4.68 µM; in the assay on KM12 colon, more than 50 µM; with SK-MEL-2 melanoma it was 31.7 µM; in the assay on HCT-116 colon, 6.97 µM. The GI50 in the assay with SN12C renal is 5.33 µM; with COLO 205 colon, 33.6 µM; in the assay on SF-295 CNS, 0.46 µM. For the same compound, the TGI is 3.85 µM and 1.2 µM with ACHN renal; more than 50 µM in the assay with RPMI-8226 leukemia; 50 µM and > 100 µM with A549 NSCLC; more than 100 µM with KM12 colon; 50 µM and > 79.2 µM in the assay with SK-MEL-2 melanoma; 50 µM and 24.3 µM in the assay with HCT-116 colon. The TGI in the assay with SN12C renal was 36.4 µM and 27 µM; in the assay with COLO 205 colon it was 50 µM and 36.6 µM; with DU-145 prostate, 37.6 µM; with SF-295 CNS, 12.1 µM and 15.7 µM.
Turning to `OCCn1c(-c2ccncc2)c(-c2ccc(F)cc2)c2ncccc21`, the GI50 with ACHN renal was 24.8 µM; in the assay with RPMI-8226 leukemia, more than 25 µM; in the assay with A549 NSCLC it was more than 25 µM; in the assay with KM12 colon, more than 25 µM; with SK-MEL-2 melanoma, more than 25 µM; in the assay on HCT-116 colon it was more than 25 µM. In addition, the GI50 in the assay on SN12C renal, in the assay with COLO 205 colon, with DU-145 prostate and in the assay on SF-295 CNS was more than 25 µM in each case. Also, the TGI in the assay on ACHN renal, with RPMI-8226 leukemia, in the assay on A549 NSCLC, in the assay on KM12 colon, in the assay with SK-MEL-2 melanoma and with HCT-116 colon was more than 25 µM in each case. Besides, the TGI with SN12C renal, in the assay with COLO 205 colon, in the assay with DU-145 prostate and in the assay on SF-295 CNS was more than 25 µM each time.
Regarding `c1csc(-c2[nH]nc3c2CCc2ccccc2-3)c1`, the GI50 in the assay on ACHN renal was 18.1 µM; with RPMI-8226 leukemia, 15.6 µM; in the assay with A549 NSCLC, 13 µM; in the assay on KM12 colon, 0.406 µM; in the assay on SK-MEL-2 melanoma, 19.7 µM; in the assay on HCT-116 colon, 14.9 µM. Moreover, the GI50 in the assay on SN12C renal is 14.8 µM; in the assay on COLO 205 colon it was 0.766 µM; in the assay on DU-145 prostate, 23.4 µM; in the assay on SF-295 CNS it was 16.4 µM. The TGI with ACHN renal came out at 85 µM; with RPMI-8226 leukemia, 55.4 µM; in the assay with A549 NSCLC, 55.4 µM; with KM12 colon, 14.9 µM; with SK-MEL-2 melanoma, 37.9 µM; in the assay on HCT-116 colon, 29.3 µM. In addition, the TGI in the assay on SN12C renal stood at 30.2 µM; in the assay with COLO 205 colon it was 8.17 µM; with DU-145 prostate, 71.3 µM; with SF-295 CNS, 38.7 µM.
For `CCNc1nc(-c2ccc(Cl)c(OC)c2)c(-c2ccnc(NCCNS(=O)(=O)c3ccc(Cl)cc3)n2)s1`, the GI50 was 3.14 µM in the assay on ACHN renal; 2.93 µM in the assay on RPMI-8226 leukemia; 3.57 µM with A549 NSCLC; 3.52 µM with KM12 colon; 2 µM in the assay with SK-MEL-2 melanoma; 2.65 µM in the assay with HCT-116 colon. Further, the GI50 with SN12C renal is 3.41 µM; with COLO 205 colon it was 2.32 µM; with DU-145 prostate, 3.94 µM; in the assay on SF-295 CNS, 1.89 µM. Moreover, the TGI with ACHN renal is more than 100 µM; in the assay with RPMI-8226 leukemia, 8.39 µM; with A549 NSCLC, 53.6 µM; in the assay on KM12 colon, more than 100 µM; in the assay with SK-MEL-2 melanoma, 4.41 µM; in the assay with HCT-116 colon, 6.25 µM. The TGI was more than 100 µM with SN12C renal, 6.61 µM with COLO 205 colon, more than 100 µM with DU-145 prostate and 3.83 µM in the assay with SF-295 CNS.
Turning to `COc1ccc(Cl)cc1Nc1nc(C(F)(F)F)ccc1C(=O)N/N=C/c1ccc(Cl)cc1`, the GI50 is 6.4 µM with ACHN renal; 3.5 µM with RPMI-8226 leukemia; 37.7 µM in the assay with A549 NSCLC; 5.16 µM in the assay on KM12 colon; 0.954 µM in the assay with SK-MEL-2 melanoma; 3.39 µM in the assay with HCT-116 colon. Besides, the GI50 in the assay with SN12C renal was 8.67 µM; in the assay with COLO 205 colon it was 2.76 µM; with DU-145 prostate, 7.02 µM; with SF-295 CNS, 2.09 µM. In addition, the TGI is 66.2 µM in the assay on ACHN renal; more than 100 µM in the assay on RPMI-8226 leukemia; more than 100 µM in the assay with A549 NSCLC; more than 100 µM in the assay with KM12 colon; more than 100 µM with SK-MEL-2 melanoma; 19.9 µM in the assay on HCT-116 colon. Moreover, the TGI in the assay on SN12C renal was more than 100 µM; in the assay with COLO 205 colon, more than 100 µM; with DU-145 prostate, more than 100 µM; in the assay with SF-295 CNS, 12.1 µM.
In the case of `CN1CCN(Cc2ccc(NC(=O)c3cncc(C#Cc4cnc5cccnn45)c3)cc2C(F)(F)F)CC1`, the GI50 in the assay on ACHN renal was 1.43 µM; with RPMI-8226 leukemia, 1.11 µM; with A549 NSCLC it was 1.57 µM; with KM12 colon it was 0.00863 µM; in the assay on SK-MEL-2 melanoma, 0.639 µM; in the assay on HCT-116 colon, 0.711 µM. The GI50 in the assay on SN12C renal is 1.26 µM; in the assay on COLO 205 colon, 1.02 µM; in the assay on DU-145 prostate, 1.54 µM; in the assay on SF-295 CNS it was 1.49 µM. Further, the TGI in the assay on ACHN renal came to 4.9 µM; in the assay with RPMI-8226 leukemia, 3.05 µM; in the assay with A549 NSCLC, 5.05 µM; in the assay on KM12 colon, 2.41 µM; in the assay with SK-MEL-2 melanoma it was 1.71 µM; in the assay on HCT-116 colon it was 6.04 µM. In addition, the TGI with SN12C renal stood at 5.2 µM; in the assay on COLO 205 colon, 2.91 µM; in the assay on DU-145 prostate it was 5.34 µM; in the assay with SF-295 CNS it was 5.42 µM.
As to `COc1cccc2c(Nc3ccc(C(=O)NCCN4CCNCC4)cc3)cc(-c3ccccc3)nc12`, the GI50 in the assay on ACHN renal is 18.8 µM; in the assay with RPMI-8226 leukemia, 18 µM; with A549 NSCLC, more than 100 µM; with KM12 colon it was 30.8 µM; in the assay with SK-MEL-2 melanoma, 19.9 µM; with HCT-116 colon it was 30.9 µM. For the same compound, the GI50 in the assay on SN12C renal was 50.7 µM; in the assay on COLO 205 colon it was 19.7 µM; in the assay on DU-145 prostate, 71 µM; in the assay on SF-295 CNS, 33.1 µM. Besides, the TGI in the assay on ACHN renal was 40.8 µM; with RPMI-8226 leukemia it was 44.3 µM; in the assay with A549 NSCLC, more than 100 µM; in the assay with KM12 colon, more than 100 µM; in the assay with SK-MEL-2 melanoma, 51.7 µM; in the assay on HCT-116 colon, more than 100 µM. Moreover, the TGI with SN12C renal was more than 100 µM; with COLO 205 colon it was 56.1 µM; in the assay with DU-145 prostate, more than 100 µM; in the assay with SF-295 CNS it was more than 100 µM.
